Experimental data: patent publication US12569459B2, “Compositions and methods for treating pulmonary edema or lung inflammation” (priority 2020, dated 2026)

Experiments:
[1] = Phase I/II trial of instilled T3: serum thyroid hormone levels; type: in vivo, human
Description: (§1) Ten milliliters (mls) of reformulated, pH-adjusted commercial intravenous T3 solution (Par Pharmaceutical, Navi Mumbai, India; and XGen Pharmaceuticals DJB, Inc., Horseheads, NY) was instilled directly into the airspaces via a suction catheter in the endotracheal tube of intubated patients with ARDS. […] The study was approved by the Essentia IRB (Duluth, MN) and listed on ClinicalTrials.gov (NCT04115514).
(§2) Subsequent doses were given on days 4, 6, and 7. […] Despite Klebsiella aerogenes positive sputum culture, they were extubated on ventilator day 11. After discharge from the ICU, they had some confusion and delirium.

[2] = system: rat lung mucosa and airspaces; assay: Preliminary studies: intratracheal instillation of liothyronine sodium without pH adjustment; conditions: pH of >10.0 as supplied commercially
Experimental: (§3) Using aseptic technique, vials of liothyronine sodium were opened and the entire contents were transferred into sterile 1.5 mL Eppendorf tubes. 80-90 μL of 1.0 N HCl was added to the tube and gently vortexed, and the pH was measured using pH test strips (pH 4.5 to 10.0, Ricca Chemical Co., Arlington, TX). Additional HCl was titrated in gradually, as needed, until the pH was in the desired range. […] This solution was stored at 4° C. and used for up to 26 hours after pH adjustment procedure.

[3] = system: intubated patients with ARDS; assay: Phase I/II trial of instilled T3: safety and clinical course; type: in vivo, human
Description: as §1, §2

[4] = single oral dose of 50 micrograms; cited from earlier work
in vivo = assay: in vivo; set-up: species or system Sprague-Dawley rats; conditions: Sprague-Dawley, rat; for Cmax_D / Vz_F_obs / AUC(0-inf): inhaled or intranasal; for AUC(0-inf): 2.73 ug
Experimental: Sixty animals (plus two spare animals/sex/group) were anesthetized and dosed via intratracheal instillation of test or control materials for five consecutive days. On the day after the last dose a terminal blood collection was performed for clinical pathology, after which animals were euthanized and a gross examination of all organs was performed by a board-certified veterinary pathologist. Select tissues were collected for histopathology. […] Terminal blood collection was performed at two designated time points per animal up to 24 hours after administration for toxicokinetic evaluation. TK animals were euthanized without further evaluation after the final blood collection. All animals were acclimated for a minimum of seven days prior to the dosing procedure. Animals underwent baseline observations and examinations prior to the initiation of the study, and clinical observations and body weight monitoring were performed throughout the in-life portion of the study. All animals received the same dose volume (0.3 mL) of either test or control materials. This maximum feasible dose (MFD) is constrained by the maximum volume that can be safely and reproducibly (over five days) instilled into lungs of rats weighing 250 g to 350 g, which was determined in preliminary toxicology studies to be 0.3 mL. Actual doses delivered are reported as both μg/kg body weight and μg/gm wet lung weight. The toxicity phase animals were 72-135 days of age at the time of initial dosing. Males weighed between 256.52 g and 307.50 g with a mean±standard deviation of 286.74±11.77 g, and females weighed between 250.46 g and 299.01 g with a mean±standard deviation of 260.64±10.34 g. The TK phase animals were 68-144 days of age at the time of initial dosing. Males weighed between 261.23 g and 316.19 g; females weighed between 250.06 g and 280.32 g.
For toxicokinetic experiments, rats were anesthetized with combination of ketamine 40 mg/kg to 200 mg/kg and xylazine 1 mg/kg to 7 mg/kg, intraperitoneally (IP), to effect for dosing procedures, and dosed intratracheally with liothyronine sodium injection as previously described. Depending on the duration of time between dosing and the first or second blood collection time points, animals either had blood collected while still anesthetized under the injectable anesthetics, or if recovered, they were anesthetized with Isoflurane 2-5% and oxygen 1-1.5 L/minute by inhalation anesthesia via nose cone, as needed, to maintain adequate anesthesia depth (assessed by toe pinch). Topical proparicaine anesthetic ophthalmic solution was applied to each eye prior to performing the first blood collection and allowed time to take effect. Collection of serum samples for TK analysis was as described for serum chemistry samples above, and samples were stored at ≤−70° C. until assayed. Animals were euthanized with EUTHASOL (Virbac Corp., Fort Worth, TX)≥86 mg/kg IP to effect following the final blood collection.
For assessment of serum T3 levels samples were sent to the Fairview University of Minnesota Medical Center East Bank Diagnostic Laboratory for analysis, a clinical laboratory certified by CLIA and CAP. Prior to sending serum samples to the analytical lab each sample was diluted 1:4 or 1:8 in normal (0.9%) saline. […] Samples were analyzed by a chemiluminescence assay for total triiodothyronine (T3).
Toxicokinetic parameters were estimated using Phoenix 64 WinNonlin pharmacokinetic software version 7.0. (Pharsight Corp., Mountain View, CA). A non-compartmental (NCA) approach consistent with the route of administration was used for parameter estimation. […] Whenever possible, mean concentrations were derived from three animals/gender/time point. Parameters were estimated using sampling times relative to the start of each dose administration. The raw data was converted to ng/ml of serum by dividing the […] values by 100 and then multiplying by the dilution factor for that sample, either 4 or 8. […]

[5] = Preliminary dose-finding studies, intravenous vs intratracheal 3.0 μg neutral pH T3; type: in vivo, rats
Experimental: FIG. 6. […] A single dose of T3 was administered intravenously (diamonds) or via intratracheal instillation (squares). Samples were analyzed for total T3 using a chemiluminescence assay.

[6] = system: rat lung mucosa and airspaces; conditions: in vivo
Experimental: as §3

[7] = 3.0 μg T3 intratracheally vs 3.0 μg intravenously

Compound: N[C@@H](Cc1cc(I)c(Oc2ccc(O)c(I)c2)c(I)c1)C(=O)O [T3, triiodothyronine]
- Serum free T3 levels ([1]; Patient 1, four 50-μg daily instilled doses, all days of treatment): 1.9 to 3.4 pg/mL
- Serum free T3 levels ([1]; Patient 2, escalating daily instilled doses 5, 10, 25, 50 μg): <1.5 to 2.2 pg/mL
- Tolerability of intratracheal instillation [2]: do not tolerate
- Follow-up status ([3]; Patient 1, 60 days): normal complete pulmonary function tests (PFTs) and chest radiograph at 60 days
- Ventilator day of extubation ([3]; Patient 1, four 50 μg doses from day 3): 11
- Tolerability of instillation ([3]; Patient 2): tolerated each installation without apparent adverse side effects
- Follow-up status ([3]; Patient 2, 60-day clinic follow up): asymptomatic with normal lung exam, chest radiograph and PFTs
- Ventilator day of extubation ([3]; Patient 2, escalating doses from ventilator day 3): 20
- Oxygenation ([3]; Patient 2, previously deteriorating): stabilized over the four treatment days
- Adverse pulmonary or systemic events ascribed to T3 instillation ([3]; Patients 1 and 2): Neither patient had significant adverse pulmonary or systemic events
- Vasopressor dose required to maintain mean arterial pressure ([3]; Patients 1 and 2): decreased in temporal association with the T3 instillation
- Time of peak serum concentration [4]: 2.5 h
- Time of physiologic effect of increased heart rate [4]: five hours
- Cl_F_obs (in vivo; female): 30.10 mL/h
- HL_Lambda_z (in vivo; female): 2.85 h
- Cmax_D (in vivo; female): 6.12 ng/mL/µg
- Vz_F_obs (in vivo; female): 123.60 mL
- AUC(0-inf) (in vivo; female): 89.7 ng·h/mL
- Cl_F_obs (in vivo; male): 74.29 mL/h
- HL_Lambda_z (in vivo; male): 3.17 h
- Cmax_D (in vivo; male): 2.44 ng/mL/µg
- Vz_F_obs (in vivo; male): 339.44 mL
- AUC(0-inf) (in vivo; male): 36.3 ng·h/mL
- AUC after intratracheal relative to intravenous administration [5, 7]: ⅕
- T3 Cmax after intratracheal relative to intravenous administration [5, 7]: 1/17
- Acute effects on physiologic parameters (respiratory rate, O2 saturation, heart rate) ([5]; single intravenous delivery or five days of intratracheal delivery of 3.0 μg neutral pH T3): no acute effects on physiologic parameters
- Toxicity of instillation into airway and lung [6]: extremely toxic to rat lung mucosa and airspaces
